{
  "source": "patent US20230263863A1",
  "about": "“COMPOSITIONS HAVING NEUROREGENERATIVE APPLICATIONS” (GRIFOLS WORLDWIDE OPERATIONS LIMITED, priority 2020, published 2023)",
  "key": {"[1]": {"tested_on": "SH-SY5Y cells", "assay": "Neurite outgrowth (Outgrowth Fold Change) in undifferentiated SH-SY5Y cells", "format": "cell-based, human", "details": "for neurogenesis / differentiation (neurite outgrowth): all proteins 0.2 mg/mL; for neurite outgrowth / differentiation over the concentration range: DFO compared with ApoTf; for neurite outgrowth or differentiation: FIG. 5", "experimental": "(§1) Undifferentiated SH-SY5Y cells were seeded into 96 well clear bottom plates in media containing 0.1% FBS. A serum-free base media was utilized as recommended by the supplier for SH-SY5Y cells (Sigma, Cat #94030304-1VL). Twenty-four hours after seeding cells, a 3× stock solution of ApoTf, final concentrations indicated on the x-axis, in serum free base media was added to the cells. ApoTf was obtained and purified from pooled human plasma and dosed at a final concentration of 0.2 mg/mL. Cells were allowed to differentiate for 6 days. Neurite growth was assessed by imaging and image analysis. At the time of analysis, a 10× solution of Tubulin Tracker (Molecular Probes, T34075) and Hoechst 33342 (Molecular Probes #H3570) nuclear stain was prepared.\nBriefly, Tubulin Tracker dissolved in DMSO was diluted 1:1 with Pluronic F-127 and further diluted into HBSS to generate a 10× solution. Hoechst 33342 was added to the HBSS-Tubulin Tracker solution at 10 μg/mL to generate a 10× nuclear stain. The 10× staining solution (10 μL) was added directly to treated assay wells and incubated at 37° C. for 30 minutes. Following incubation, 110 μL of 0.4% Trypan Blue was added directly to assay wells and imaged on a Molecular Devices Nano imaging instrument. Nine images/well were acquired in the blue (Nuclei) and green (Tubulin) fluorescent channels for each image.\nAfter obtaining images, the MetaExpress Neurite Outgrowth analysis module (Molecular Devices) was used to identify cells, cell bodies, and quantify neurites. The total number of neurite branches were divided by the total number of cells imaged to account for different numbers of cells in each test well. The Outgrowth Fold Change was determined by setting the untreated control cells to a value of 1 with all other treatments shown relative to untreated control."}, "[2]": {"assay": "Iron saturation of transferrin samples by ICP-AES", "format": "physicochemical", "experimental": "Protein purity was determined by SDS-PAGE. Iron saturation levels were determined using ICP-AES in accordance with the procedures outlined in Manley et al., J Biol Inorg Chem (2009) 14:61-74, the contents of which are incorporated herein by reference."}, "[3]": {"tested_on": "SH-SY5Y cells", "assay": "Cell number / proliferation of SH-SY5Y cells", "format": "cell-based, human", "experimental": "as §1, with “ApoTf was obtained and purified from pooled human plasma and dosed at a final concentration of 0.2 mg/mL.” left out\nBriefly, Tubulin Tracker dissolved in DMSO was diluted 1:1 with Pluronic F-127 and further diluted into HBSS to generate a 10× solution. Hoechst 33342 was added to the HBSS-Tubulin Tracker solution at 10 μg/mL to generate a 10× nuclear stain. The 10× staining solution (10 μL) was added directly to treated assay wells and incubated at 37° C. for 30 minutes. […]\nAfter obtaining images, the MetaExpress Neurite Outgrowth analysis module (Molecular Devices) was used to identify cells, cell bodies, and quantify neurites. […] The Outgrowth Fold Change was determined by setting the untreated control cells to a value of 1 with all other treatments shown relative to untreated control."}, "[4]": {"tested_on": "SH-SY5Y cells", "assay": "β-III-tubulin staining intensity in SH-SY5Y cells", "format": "cell-based, human", "details": "FIG. 1D", "experimental": "In this experiment, the SH-SY5Y cells were differentiated as described supra. At the time of analysis, cells were fixed with paraformaldehyde, stained for β-III-tubulin (R&D Systems, MAB1195), and imaged on a Molecular Devices Nano imaging instrument. Image analysis was performed by assessing the fluorescent intensity of cells stained with β-III-tubulin. Background from secondary antibody alone was subtracted from all values. Values are shown with standard deviations as “β-III-Tubulin Staining Intensity” for the indicated conditions."}, "[5]": {"tested_on": "primary human brain cortex-derived neural progenitor cells", "assay": "Differentiation of primary human neural progenitor cells to neurons and astrocytes", "format": "cell-based", "details": "ApoTf 0.8 mg/mL, 72 hours", "experimental": "Neural progenitor cells maintained as neurospheres were obtained from Lonza (PT-2599). Cells were thawed from a frozen vial of neurospheres and cultured in Human NeuroCult™ NS-A Complete Proliferation media (Stemcell Technologies) for 2 weeks. Neurospheres were dissociated to single cells and plated in Laminin coated wells of assay plates. The neural progenitor cells were seeded in NeuroCult™ NS-A Basal media containing 1/10th concentration of the recommended proliferation supplements, in the absence or presence of ApoTf (0.8 mg/mL) for 72 hours. At the time of analysis, cells were fixed with paraformaldehyde, stained for β-III-tubulin (R&D Systems, MAB1195) and GFAP (Invitrogen, PA3-16727), and imaged on a Molecular Devices Nano imaging instrument. Image analysis was performed by assessing the relative numbers of cells staining positive for β-III-tubulin or GFAP. Values for the indicated conditions are shown with standard deviations as “% β-III-Tubulin Positive” cells (FIG. 2A) or “% GFAP Positive” cells (FIG. 2B)."}, "[6]": {"tested_on": "MPTP-induced Parkinson's Disease in mice", "assay": "Kinematic gait analysis in MPTP-induced Parkinson's Disease mice", "format": "in vivo, C57BI/6J mice", "details": "ApoTf 350 mg/kg i.p. once a day, days 1-7; analysis on day 7; n=15", "experimental": "Animal experiments were performed at Charles River Laboratories (Finland), as specified in the license authorized by the national Animal Experiment Board of Finland and according to the National Institutes of Health (Bethesda, Md., USA) guidelines for the care and use of laboratory animals. Eight to twelve-week-old, C57BI/6J mice were housed at a standard temperature (22±1° C.) and in a light-controlled environment (lights on from 7 am to 8 pm) with ad libitum access to food and water.\nSolutions of MPTP were prepared by dissolving MPTP hydrochloride in sterile saline at 2.42 mg/mL; corresponding to 2.0 mg/mL of active compound. To induce Parkinson's Disease, the MPTP was given by intraperitoneal injection twice a day at 20 mg/kg. […]\nThe captured videos of each mouse were first converted to the software-readable format. […] Gait pattern and movement analysis assessed 100 different parameters, including but not limited to stride time, swing time during a stride, speed, step width, stance and interlimb coordination. The data was analysed by using principal component analysis (PCA). The overall gait analysis was based on the PCA of all parameters for each mouse, with the obtained value showing the overall differences, measured as a “distance”, between control mice and MPTP, or MPTP plus ApoTf mice. […]"}, "[7]": {"tested_on": "HIF-1α", "details": "undifferentiated SH-SY5Y; US2016008437; cited from earlier work"}, "[8]": {"details": "FIG. 1C, 0.1 mg/mL ApoTf vs untreated control"}},
  "note": "Structures can show the parent of a compound that is named as a salt.",
  "data": [
    {"compound": "HoloTf: iron-saturated form of transferrin, purified from pooled human plasma [reference compound]", "values": [
      {"measurement": "neurogenesis / differentiation (neurite outgrowth)", "setting": "[1]; FIG. 4", "result": "unable to induce differentiation"},
      {"measurement": "Iron Saturation (%)", "setting": "[2]", "result": 100, "unit": "%"}
    ]},
    {"compound": "ApoTransferrin A: apo-transferrin sample, Grifols, prepared in house", "values": [
      {"measurement": "Iron Saturation (%)", "setting": "[2]", "result": 0.27, "unit": "%"}
    ]},
    {"compound": "CC(=O)N(O)CCCCCNC(=O)CCC(=O)N(O)CCCCCNC(=O)CCC(=O)N(O)CCCCCN", "note": "[DFO, Deferoxamine mesylate, reference compound]", "values": [
      {"measurement": "concentration of maximal neurite outgrowth", "setting": "[1]; FIG. 3A", "result": "1 to 3", "unit": "µM"},
      {"measurement": "neurite outgrowth / differentiation over the concentration range", "setting": "[1]; FIG. 3A", "result": "little neurite formation beyond that concentration"}
    ]},
    {"compound": "recombinant ApoTf: recombinant wild-type human transferrin, SEQ ID NO: 1, expressed in 293-6E cells", "values": [
      {"measurement": "neurogenesis / differentiation (neurite outgrowth)", "setting": "[1]; FIG. 3B", "result": "did induce neurogenesis"}
    ]},
    {"compound": "ApoTransferrin C: apo-transferrin sample, Grifols, prepared in house", "values": [
      {"measurement": "Iron Saturation (%)", "setting": "[2]", "result": 0.24, "unit": "%"}
    ]},
    {"compound": "ApoTf: iron-free form of transferrin protein, purified from pooled human plasma", "values": [
      {"measurement": "neurite outgrowth", "setting": "[1]; FIG. 1A, ApoTf up to 0.8 mg/mL, 6 days", "result": "induce neurite outgrowth in a dose dependent manner"},
      {"measurement": "neurite/tubulin outgrowth (tubulin staining)", "setting": "[1]; [8]", "result": "promoting induction of neurite/tubulin outgrowth"},
      {"measurement": "neurite outgrowth / differentiation over the concentration range", "setting": "[1]; FIG. 3A", "result": "continues to increase differentiation even up to 9.9 μM"},
      {"measurement": "neurogenesis / differentiation (neurite outgrowth)", "setting": "[1]; FIG. 3B", "result": "did induce neurogenesis"},
      {"measurement": "differentiation (neurite outgrowth), factor combined with ApoTf", "setting": "[1]; FIGS. 7A-7D, ApoTf 0.1 mg/mL plus neurotrophic factor", "result": "synergistic effect with other neurotrophic factors and peptides"},
      {"measurement": "cell numbers (cell proliferation)", "setting": "[3]; FIG. 1B, up to 0.8 mg/mL apo-transferrin", "result": "concentration dependent increase in cell numbers"},
      {"measurement": "cell proliferation (nuclear staining)", "setting": "[3]; [8]", "result": "profound effect on promoting cell proliferation"},
      {"measurement": "β-III-Tubulin Staining Intensity", "setting": "[4]", "result": "caused an increase in β-III-tubulin protein"},
      {"measurement": "% β-III-tubulin positive cells (neurons)", "setting": "[5]; FIG. 2A", "result": "dramatically increases the percentage of cells differentiated to neurons"},
      {"measurement": "% GFAP positive cells (astrocytes)", "setting": "[5]; FIG. 2B", "result": "dramatically increases"},
      {"measurement": "movement and gait (Distance from Control, PCA)", "setting": "[6]", "result": "significantly ameliorated"},
      {"measurement": "Iron Saturation (%)", "setting": "[2]", "result": "< 0.3", "unit": "%"}
    ]},
    {"compound": "C[C@@H](N)[C@H]1CC[C@H](C(=O)Nc2ccncc2)CC1.Cl.Cl", "note": "[Y-27632, trans-4-[(1R)-1-Aminoethyl]-N-4-pyridinylcyclohexanecarboxamide dihydrochloride, reference compound]", "values": [
      {"measurement": "neurogenic effect (neurite outgrowth), alone", "setting": "[1]; FIG. 8, Y-27632 50 μM", "result": "strongly neurogenic"},
      {"measurement": "neurogenic effect (neurite outgrowth), in the presence of ApoTf", "setting": "[1]; FIG. 8, Y-27632 50 μM plus ApoTf 0.1 mg/mL", "result": "synergistic showing an effect beyond that exhibited by either molecule alone"}
    ]},
    {"compound": "O=C(O)CNC(=O)c1c(O)c2ccccc2n(Cc2ccccc2)c1=O", "note": "[IOX2, N-[[1,2-Dihydro-4-hydroxy-2-oxo-1-(phenylmethyl)-3-quinolinyl]carbonyl]-glycine, reference compound]", "values": [
      {"measurement": "neurite outgrowth or differentiation", "setting": "[1]; 4 μM IOX2", "result": "no effect was observable"},
      {"measurement": "neurite outgrowth or differentiation", "setting": "[1]; IOX2-treated cells", "result": "no neurite outgrowth or differentiation was observed"},
      {"measurement": "concentration inducing up-regulation of HIF-1α", "setting": "[7]", "result": 1, "unit": "µM"}
    ]},
    {"compound": "ApoTransferrin B: apo-transferrin sample, Grifols, prepared in house", "values": [
      {"measurement": "Iron Saturation (%)", "setting": "[2]", "result": 0.59, "unit": "%"}
    ]}
  ]
}
